The text below walks through data of US12479834B2, “Phenol compound or salt thereof” (TAIHO PHARMACEUTICAL CO., LTD., priority 2019, dated 2025).

The target in one assay is T1, KRAS G12C mutant (Homo sapiens, UniProt P01116, G12C).
T1 construct: 50 μM G12C K-Ras4B (1-169) protein and 1 mM BODIPY® FL GDP; His tag (N, cleaved yes); made in house; host or cells: E. coli BL21 (DE3)
Kind of assay: Inhibition of SOS1-mediated nucleotide (GDP-GTP) exchange reaction of KRAS G12C mutant, BODIPY FL GDP fluorescence. The assay is classed as biochemical. As to conditions: preincubated 25° C. 4 hours with 25 nM KRAS G12C bound with BODIPY FL GDP; SOS1 100 nM, GppNHp 1 μM, 30 minutes. The source says: (§1) SOS1 protein was expressed in E. coli strain BL21 (DE3) by synthesizing a nucleotide sequence encoding the amino acid sequence represented by GenPept ID NP_005624 as a sequence optimized for E. coli by use of GeneArt Technology (Life Technologies Corp.) such that the protein was N-terminally His-tagged and fused with a TEV protease recognition sequence (ENLYFQG). The expressed His-tagged SOS1 (564-1049) was purified through a Ni column, then cleaved at its tag with N-terminally His-tagged TEV protease, and passed through a Ni column again to recover a flow-through fraction to obtain the protein.
Each compound was studied for its inhibitory effect on the exchange reaction of GDP into GppNHp in BODIPY® FL bound with the KRAS G12C mutant by fluorescence measurement using the G12C K-Ras4B (1-169) protein and the SOS1 protein.
For the preparation of the KRAS G12C mutant bound with BODIPY® FL GDP, first, 50 μM G12C K-Ras4B (1-169) protein and 1 mM BODIPY® FL GDP (Invitrogen Corp., G22360) were incubated for 1 hour in a buffer solution (20 mM Tris-HCl (pH 7.5), 50 mM NaCl, and 1 mM DTT) in ice in the presence of 2.5 mM EDTA. Then, MgCl2 was added thereto at a final concentration of 10 mM, then the mixture was incubated at room temperature for 30 minutes, and then, the protein was passed through a NAP-5 column for removal of free nucleotides and used for compound evaluation.
For the measurement of the inhibitory activity of compounds against nucleotide exchange reaction, first, the compound of the present invention was serially diluted with DMSO. Subsequently, the serially diluted solution of the compound of the present invention in DMSO (final concentration of DMSO: 5%) and the KRAS G12C mutant (25 nM) bound with BODIPY® FL GDP were added into a reaction buffer solution (20 mM Tris-HCl (pH 7.5), 100 mM NaCl, 1 mM MgCl2, 2 mM DTT, and 0.1% Tween 20), and the mixture was preincubated at 25° C. for 4 hours. Then, Son of Sevenless Homolog 1 (SOS1, amino acid region: 564-1049) and GppNHp (GMPPNP, Jena Bioscience GmbH, NU-401-50) were added thereto at final concentrations of 100 nM and 1 μM, respectively, and the mixture was reacted for 30 minutes. The change in fluorescence intensity of BODIPY® FL (excitation wavelength: 485 nm, fluorescence wavelength: 520 nm) between immediately after the start of reaction and after 30 minutes from the start of reaction was standardized, and then, the compound concentration at which 50% inhibition was achieved was calculated as IC50 (nM) when the signal value for only DMSO was defined as 0% inhibition and the signal value for no addition of GppNHp was defined as 100% inhibition.

The next assay deals with T2, G12C K-Ras4B (1-169) (Homo sapiens, UniProt P01116, G12C).
T2 construct: G12C K-Ras4B (1-169) protein, which was a KRAS G12C mutant; His tag (N, cleaved yes); made in house; host or cells: E. coli BL21 (DE3)
Put plainly: Binding to KRAS G12C mutant, compound binding rate by LC-MS. As to conditions: final compound concentration 2 μM, 1 μM protein, 2 hours at 25° C.
From the text: as §1, with “K-Ras4B (1-169)” for “SOS1”, “NP_004976” for “NP_005624”, “K-Ras4B (1-169)” for “SOS1 (564-1049)”, “fraction, which was further purified by anion-exchange chromatography” for “fraction”, “protein. G12C K-Ras4B (1-169) protein, which was a KRAS G12C mutant, was obtained in the same way as in the K-Ras4B(1-169) protein except that glycine at position 12 of the amino acid sequence represented by GenPept ID NP_004976 was mutated to cysteine.” for “protein.”
The K-Ras4B (1-169) protein and the G12C K-Ras4B (1-169) protein were mixed and diluted with a buffer solution (1×TBS and 0.1 mM TCEP) to prepare a protein solution containing 1 μM each of the proteins. Each test compound was dissolved at 10 mM in DMSO and further diluted 10-fold with DMSO to make a 1 mM solution. Then, the solution was diluted 5-fold with DMSO to make a 200 μM solution. The 200 μM solution was further diluted 5-fold to make a […] solution. 1 μL of the 40 μM test compound was added to 19 μL of the 1 μM protein solution such that the final compound concentration was 2 μM. The mixture was stored for 2 hours in an incubator of 25° C., and the reaction was terminated by the addition of 80 μL of a 1×TBS solution containing 0.2% formic acid, followed by LC-MS measurement.
The LC-MS measurement was performed by using Xevo G2-S Q-Tof manufactured by Waters Corp., performing reverse-phase chromatography with a desalting column, and obtaining mass spectra of positive ions by electrospray. For the mass spectra, spectra of polyvalent ions were collectively converted to molecular weights by the MaxEnt technique using OpenLynx software, and then, a compound binding rate was obtained from the ratio of […].
The binding rates of test compounds having a final compound concentration of 2 μM for G12C K-Ras4B (1-169) are shown in the table below. The binding rate for G12C K-Ras4B (1-169) is rated “A” for 80% or more, “B” for 60% or more and less than 80%, “C” for 40% or more and less than 60%, “D” for 20% or more and less than 40%, and “E” for less than 20%.

`C=CC(=O)N1CC(NC(=O)c2oc(CNc3cc(C(C)(C)C)c(Cl)cc3O)cc2C)C1` [Example 21, N-(1-Acryloylazetidin-3-yl)-5-(((5-(tert-butyl)-4-chloro-2-hydroxyphenyl)amino)methyl)-3-methylfuran-2-carboxamide] came in with an IC50 on KRAS G12C mutant of 808 nM. Moreover, the “binding rate for G12C K-Ras4B (1-169)” value on G12C K-Ras4B (1-169) was “B (60% or more and less than 80%)”.

`C=CC(=O)N1CC(NC(=O)c2ccc(CNc3cc(C(C)(C)C)c(Cl)cc3O)cc2Cl)C1` [Example 22, N-(1-Acryloylazetidin-3-yl)-4-(((5-(tert-butyl)-4-chloro-2-hydroxyphenyl)amino)methyl)-2-chlorobenzamide] came in with an IC50 at KRAS G12C mutant of 2380 nM. Moreover, at G12C K-Ras4B (1-169), the “binding rate for G12C K-Ras4B (1-169)” value is “D (20% or more and less than 40%)”.

Take `C=CC(=O)N1CC(NC(=O)c2cc(CNc3cc(C(C)(C)C)c(Cl)cc3O)ccc2F)C1` [Example 23, N-(1-Acryloylazetidin-3-yl)-5-(((5-(tert-butyl)-4-chloro-2-hydroxyphenyl)amino)methyl)-2-fluorobenzamide]: at KRAS G12C mutant, the half-maximal inhibitory concentration (IC50) was determined as 1000 nM. For the same molecule, the “binding rate for G12C K-Ras4B (1-169)” value at G12C K-Ras4B (1-169) is “C (40% or more and less than 60%)”.

`C=CC(=O)N1CC(NC(=O)c2sc(CNc3cc(C(C)(C)C)c(Cl)cc3O)nc2C(F)(F)F)C1` [Example 24, N-(1-Acryloylazetidin-3-yl)-2-(((5-(tert-butyl)-4-chloro-2-hydroxyphenyl)amino)methyl)-4-(trifluoromethyl)thiazole-5-carboxamide] displayed an IC50 at KRAS G12C mutant of 780 nM. Moreover, the “binding rate for G12C K-Ras4B (1-169)” value on G12C K-Ras4B (1-169) is “C (40% or more and less than 60%)”.

In the case of `C=CC(=O)N1CC(NC(=O)c2cn(C)c(CNc3cc(C(C)(C)C)c(Cl)cc3O)n2)C1` [Example 25, N-(1-Acryloylazetidin-3-yl)-2-(((5-(tert-butyl)-4-chloro-2-hydroxyphenyl)amino)methyl)-1-methyl-1H-imidazole-4-carboxamide], the IC50 against KRAS G12C mutant was 4680 nM. Besides, the “binding rate for G12C K-Ras4B (1-169)” value on G12C K-Ras4B (1-169) is recorded as “E (less than 20%)”.

As for `C=CC(=O)N1CC(NC(=O)c2cnc(CNc3cc(C(C)(C)C)c(Cl)cc3O)[nH]2)C1` [Example 26, N-(1-Acryloylazetidin-3-yl)-2-(((5-(tert-butyl)-4-chloro-2-hydroxyphenyl)amino)methyl)-1H-imidazole-5-carboxamide], at KRAS G12C mutant, the half-maximal inhibitory concentration (IC50) was determined as 212 nM. The “binding rate for G12C K-Ras4B (1-169)” value on G12C K-Ras4B (1-169) is recorded as “A (80% or more)”.

As for `C=CC(=O)N1CC(NC(=O)c2c(I)nc(CNc3cc(C(C)(C)C)c(Cl)cc3O)n2C)C1` [Example 27, N-(1-Acryloylazetidin-3-yl)-2-(((5-(tert-butyl)-4-chloro-2-hydroxyphenyl)amino)methyl)-4-iodo-1-methyl-1H-imidazole-5-carboxamide], on KRAS G12C mutant, half-maximal inhibition (IC50) required 16 nM. Also, the “binding rate for G12C K-Ras4B (1-169)” value at G12C K-Ras4B (1-169) is reported as “A (80% or more)”.

`C=CC(=O)N1CC(N(C)C(=O)c2cnc(CNc3cc(C(C)(C)C)c(Cl)cc3O)o2)C1` [Example 28, N-(1-Acryloylazetidin-3-yl)-2-(((5-(tert-butyl)-4-chloro-2-hydroxyphenyl)amino)methyl)-N-methyloxazole-5-carboxamide] came in with an IC50 against KRAS G12C mutant of 201 nM. Further, the “binding rate for G12C K-Ras4B (1-169)” value on G12C K-Ras4B (1-169) was “C (40% or more and less than 60%)”.

As for `C=CC(=O)N1CC(N(C)C(=O)c2cccc(CNc3cc(C(C)(C)C)c(Cl)cc3O)n2)C1` [Example 30, N-(1-Acryloylazetidin-3-yl)-6-(((5-(tert-butyl)-4-chloro-2-hydroxyphenyl)amino)methyl)-N-methylpicolinamide], inhibition at KRAS G12C mutant was half-maximal at 1690 nM (IC50). Moreover, on G12C K-Ras4B (1-169), the “binding rate for G12C K-Ras4B (1-169)” value is “E (less than 20%)”.

As for `C=CC(=O)N1CC(N(C)C(=O)c2cnc(CNc3cc(C(C)(C)C)c(Cl)cc3O)s2)C1` [Example 31, N-(1-Acryloylazetidin-3-yl)-2-(((5-(tert-butyl)-4-chloro-2-hydroxyphenyl)amino)methyl)-N-methylthiazole-5-carboxamide], 247 nM corresponded to half-maximal inhibition on KRAS G12C mutant (IC50). At G12C K-Ras4B (1-169), the “binding rate for G12C K-Ras4B (1-169)” value is “C (40% or more and less than 60%)”.

Molecule `C=CC(=O)N1CC(N(C)C(=O)c2csc(CNc3cc(C(C)(C)C)c(Cl)cc3O)n2)C1` [Example 32, N-(1-Acryloylazetidin-3-yl)-2-(((5-(tert-butyl)-4-chloro-2-hydroxyphenyl)amino)methyl)-N-methylthiazole-4-carboxamide] yielded an IC50 against KRAS G12C mutant of 64 nM. Also, at G12C K-Ras4B (1-169), the “binding rate for G12C K-Ras4B (1-169)” value is “B (60% or more and less than 80%)”.

On KRAS G12C mutant, `C=CC(=O)N1CC(N(C)C(=O)c2coc(CNc3cc(C(C)(C)C)c(Cl)cc3O)c2)C1` [Example 33, N-(1-Acryloylazetidin-3-yl)-5-(((5-(tert-butyl)-4-chloro-2-hydroxyphenyl)amino)methyl)-N-methylfuran-3-carboxamide] came in with an IC50 of 1490 nM. The “binding rate for G12C K-Ras4B (1-169)” value at G12C K-Ras4B (1-169) is “E (less than 20%)”.

`C=CC(=O)N1CC(N(C)C(=O)c2cc(CNc3cc(C(C)(C)C)c(Cl)cc3O)co2)C1` [Example 34, N-(1-Acryloylazetidin-3-yl)-4-(((5-(tert-butyl)-4-chloro-2-hydroxyphenyl)amino)methyl)-N-methylfuran-2-carboxamide] displayed an IC50 at KRAS G12C mutant of 80 nM. In addition, the “binding rate for G12C K-Ras4B (1-169)” value at G12C K-Ras4B (1-169) is given as “A (80% or more)”.

Regarding `C=CC(=O)N1CC(N(C)C(=O)c2sc(CNc3cc(C(C)(C)C)c(Cl)cc3O)nc2C)C1` [Example 35, N-(1-Acryloylazetidin-3-yl)-2-(((5-(tert-butyl)-4-chloro-2-hydroxyphenyl)amino)methyl)-N,4-dimethylthiazole-5-carboxamide], half-maximal inhibition at KRAS G12C mutant (IC50) required 463 nM. Besides, the “binding rate for G12C K-Ras4B (1-169)” value on G12C K-Ras4B (1-169) is “E (less than 20%)”.

In turn, `C=CC(=O)N1CC(NC(=O)c2cnc(CNc3cc(C(C)(C)C)c(Cl)cc3O)n2CC)C1` [Example 36, N-(1-Acryloylazetidin-3-yl)-2-(((5-(tert-butyl)-4-chloro-2-hydroxyphenyl)amino)methyl)-1-ethyl-1H-imidazole-5-carboxamide] returned an IC50 on KRAS G12C mutant of 15 nM. Also, the “binding rate for G12C K-Ras4B (1-169)” value on G12C K-Ras4B (1-169) is “A (80% or more)”.

The term IC50 denotes the concentration that gives 50% inhibition. A high value points to a need for much substance.
